Test results: patent US12612387B2, “RAS inhibitors and methods of using the same” (Jazz Pharmaceuticals Ireland Limited, priority 2020, dated 2026)

Columns and labels:
K-RAS G12D = biological target: T1, K-RAS G12D (Homo sapiens, UniProt P01116, G12D); test: Compound depletion assay, K-RAS G12D; assay type: binding; conditions: G12D protein 20 μM, compound 8 μM, 25° C.
T1 construct: His tag; purchased Stratech
Summary of the method: (§1)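 His-tagged K-RAS (20 μM) in 20 mM HEPES pH 7.5, 150 mM NaCl, 1 mM MgCl2 incubated with 8 μM compound (final) at 25 °C with agitation. At 0, 30, 180, 360, 1440 min, samples were acid/acetonitrile-quenched and remaining free compound quantified by LC-MS/MS against propranolol, as percent of time zero.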

K-RAS G12C = biological target: T2, K-RAS G12C (Homo sapiens, UniProt P01116, G12C); test: Compound depletion assay, K-RAS G12C; assay type: binding; conditions: G12C protein 20 μM, compound 8 μM, 25° C.
T2 construct: His tag; purchased Stratech
Summary of the method: as §1

T2 sequence (P01116 1-188 isoform P01116-2 G12C): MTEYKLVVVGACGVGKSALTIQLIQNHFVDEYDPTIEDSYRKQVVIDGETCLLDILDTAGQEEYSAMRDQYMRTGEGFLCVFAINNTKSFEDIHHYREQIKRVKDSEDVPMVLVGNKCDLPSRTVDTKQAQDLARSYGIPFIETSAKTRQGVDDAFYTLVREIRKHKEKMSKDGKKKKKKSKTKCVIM
T1 sequence (P01116 1-188 isoform P01116-2 G12D): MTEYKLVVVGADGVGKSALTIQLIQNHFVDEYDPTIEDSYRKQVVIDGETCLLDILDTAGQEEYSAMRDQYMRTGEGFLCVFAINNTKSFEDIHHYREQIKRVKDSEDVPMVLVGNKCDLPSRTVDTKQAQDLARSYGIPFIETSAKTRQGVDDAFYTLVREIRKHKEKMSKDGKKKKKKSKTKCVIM

Structure (SMILES)	30 min Category (compound remaining at timepoint) (K-RAS G12D)	3 hr Category (compound remaining at timepoint) (K-RAS G12D)	6 hr Category (compound remaining at timepoint) (K-RAS G12D)	30 min Category (compound remaining at timepoint) (K-RAS G12C)	3 hr Category (compound remaining at timepoint) (K-RAS G12C)	6 hr Category (compound remaining at timepoint) (K-RAS G12C)	24 hr Category (compound remaining at timepoint) (K-RAS G12D)	24 hr Category (compound remaining at timepoint) (K-RAS G12C)
C=CC(=O)N1CCN(c2cc(C(=O)Nc3cc(O)cc4ccccc34)nc(OCC3CCCCN3C)n2)C[C@@H]1CC#N (stereo partly drawn) [Example 48, 6-[(3S)-3-(cyanomethyl)-4-prop-2-enoyl-piperazin-1-yl]-N-(3-hydroxy-1-naphthyl)-2-[(1-methyl-2-piperidyl)methoxy]pyrimidine-4-carboxamide]	A (≥70% compound remaining at timepoint)	A (≥70% compound remaining at timepoint)	A (≥70% compound remaining at timepoint)	C (≤30% compound remaining at timepoint)	C (≤30% compound remaining at timepoint)	C (≤30% compound remaining at timepoint)	–	–
C=CC(=O)N1CCN(c2cc(C(=O)Nc3cc(O)cc4ccccc34)nc(NCCN3CCOCC3)n2)C[C@@H]1CC#N [Example 28, 6-[(3S)-3-(cyanomethyl)-4-prop-2-enoyl-piperazin-1-yl]-N-(3-hydroxy-1-naphthyl)-2-(2-morpholinoethylamino)pyrimidine-4-carboxamide]	A (≥70% compound remaining at timepoint)	A (≥70% compound remaining at timepoint)	A (≥70% compound remaining at timepoint)	A (≥70% compound remaining at timepoint)	A (≥70% compound remaining at timepoint)	B (30%-70% compound remaining at timepoint)	–	–
C=CC(=O)N1CCN(c2cc(C(=O)Nc3ccc(O)cc3)nc(OC[C@@H]3CCCN3C)n2)CC1 [Example 05]	–	A (≥70% compound remaining at timepoint)	–	–	A (≥70% compound remaining at timepoint)	–	A (≥70% compound remaining at timepoint)	A (≥70% compound remaining at timepoint)
C=CC(=O)N1CCN(c2cc(C(=O)Nc3cc(O)cc4ccccc34)nc(OC[C@H]3CCCN3C)n2)C[C@@H]1CC#N [Example 34, 6-[(3S)-3-(cyanomethyl)-4-prop-2-enoyl-piperazin-1-yl]-N-(3-hydroxy-1-naphthyl)-2-[[(2R)-1-methylpyrrolidin-2-yl]methoxy]pyrimidine-4-carboxamide]	A (≥70% compound remaining at timepoint)	A (≥70% compound remaining at timepoint)	A (≥70% compound remaining at timepoint)	B (30%-70% compound remaining at timepoint)	C (≤30% compound remaining at timepoint)	C (≤30% compound remaining at timepoint)	–	–
C=CC(=O)N1CCN(c2cc(NC(=O)c3cccc4ccccc34)nc(N3CCN(C)CC3)n2)CC1 [Example 12, N-[2-(4-methylpiperazin-1-yl)-6-(4-prop-2-enoylpiperazin-1-yl)pyrimidin-4-yl]naphthalene-1-carboxamide]	–	A (≥70% compound remaining at timepoint)	–	–	A (≥70% compound remaining at timepoint)	–	A (≥70% compound remaining at timepoint)	A (≥70% compound remaining at timepoint)
C=CC(=O)N1CCN(c2cc(C(=O)Nc3cc(O)cc4ccccc34)nc(NCC3CCCCN3C)n2)C[C@@H]1CC#N (stereo partly drawn) [Example 49, 6-[(3S)-3-(cyanomethyl)-4-prop-2-enoyl-piperazin-1-yl]-N-(3-hydroxy-1-naphthyl)-2-[(1-methyl-2-piperidyl)methylamino]pyrimidine-4-carboxamide]	A (≥70% compound remaining at timepoint)	A (≥70% compound remaining at timepoint)	A (≥70% compound remaining at timepoint)	B (30%-70% compound remaining at timepoint)	C (≤30% compound remaining at timepoint)	C (≤30% compound remaining at timepoint)	–	–
C=CC(=O)N1CCN(c2cc(C(=O)Nc3cccc4ccccc34)nc(OC[C@@H]3CCCN3C)n2)C[C@@H]1CC#N [Example 02, 6-[(3S)-3-(cyanomethyl)-4-prop-2-enoyl-piperazin-1-yl]-2-[[(2S)-1-methylpyrrolidin-2-yl]methoxy]-N-(1-naphthyl)pyrimidine-4-carboxamide]	–	A (≥70% compound remaining at timepoint)	–	–	B (30%-70% compound remaining at timepoint)	–	A (≥70% compound remaining at timepoint)	B (30%-70% compound remaining at timepoint)
C=CC(=O)N1CCN(c2cc(C(=O)Nc3cc(O)cc4ccccc34)nc(OC[C@@H]3CCCN3C)n2)C[C@@H]1CC#N [Example 08, 6-[(3S)-3-(cyanomethyl)-4-prop-2-enoyl-piperazin-1-yl]-N-(3-hydroxy-1-naphthyl)-2-[[(2S)-1-methylpyrrolidin-2-yl]methoxy]pyrimidine-4-carboxamide]	A (≥70% compound remaining at timepoint)	A (≥70% compound remaining at timepoint)	A (≥70% compound remaining at timepoint)	B (30%-70% compound remaining at timepoint)	C (≤30% compound remaining at timepoint)	C (≤30% compound remaining at timepoint)	A (≥70% compound remaining at timepoint)	C (≤30% compound remaining at timepoint)
C=CC(=O)N1CCN(c2cc(C(=O)Nc3cccc4ccccc34)nc(OCCN3CCOCC3)n2)CC1 [Example 07, 2-(2-morpholinoethoxy)-N-(1-naphthyl)-6-(4-prop-2-enoylpiperazin-1-yl)pyrimidine-4-carboxamide]	–	A (≥70% compound remaining at timepoint)	–	–	A (≥70% compound remaining at timepoint)	–	A (≥70% compound remaining at timepoint)	A (≥70% compound remaining at timepoint)
C=CC(=O)N1CCN(c2cc(C(=O)Nc3cc(O)cc4ccccc34)nc(-c3cccc4c3cnn4C)n2)C[C@@H]1CC#N [Example 38, 6-[(3S)-3-(cyanomethyl)-4-prop-2-enoyl-piperazin-1-yl]-N-(3-hydroxy-1-naphthyl)-2-(1-methylindazol-4-yl)pyrimidine-4-carboxamide]	A (≥70% compound remaining at timepoint)	A (≥70% compound remaining at timepoint)	A (≥70% compound remaining at timepoint)	A (≥70% compound remaining at timepoint)	A (≥70% compound remaining at timepoint)	A (≥70% compound remaining at timepoint)	–	–
C=CC(=O)N1CCN(c2cc(C(=O)Nc3cc(O)cc4ccccc34)nc(N3CCN(CCO)CC3)n2)C[C@@H]1CC#N [Example 37, 6-[(3S)-3-(cyanomethyl)-4-prop-2-enoyl-piperazin-1-yl]-2-[4-(2-hydroxyethyl)piperazin-1-yl]-N-(3-hydroxy-1-naphthyl)pyrimidine-4-carboxamide]	A (≥70% compound remaining at timepoint)	A (≥70% compound remaining at timepoint)	A (≥70% compound remaining at timepoint)	B (30%-70% compound remaining at timepoint)	C (≤30% compound remaining at timepoint)	C (≤30% compound remaining at timepoint)	–	–
C=CC(=O)N1CCN(c2cc(C(=O)Nc3cc(O)cc4ccccc34)nc(NCc3ccnn3C)n2)C[C@@H]1CC#N [Example 41, 6-[(3S)-3-(cyanomethyl)-4-prop-2-enoyl-piperazin-1-yl]-N-(3-hydroxy-1-naphthyl)-2-[(2-methylpyrazol-3-yl)methylamino]pyrimidine-4-carboxamide]	A (≥70% compound remaining at timepoint)	A (≥70% compound remaining at timepoint)	A (≥70% compound remaining at timepoint)	A (≥70% compound remaining at timepoint)	B (30%-70% compound remaining at timepoint)	B (30%-70% compound remaining at timepoint)	–	–
C=CC(=O)N1CCN(c2cc(C(=O)Nc3cccc4ccccc34)nc(N3CCN(C)CC3)n2)CC1 [Example 20, 2-(4-methylpiperazin-1-yl)-N-(1-naphthyl)-6-(4-prop-2-enoylpiperazin-1-yl)pyrimidine-4-carboxamide]	–	A (≥70% compound remaining at timepoint)	–	–	A (≥70% compound remaining at timepoint)	–	A (≥70% compound remaining at timepoint)	A (≥70% compound remaining at timepoint)
